Patent publication US8399420B2, “Azacytidine analogues and uses thereof” (Mount Sanai School of Medicine, priority 2007, dated 2013)

Columns and labels:
[1] = tested on: MT-3/ADR resistant breast carcinoma; experiment: Cytotoxicity, MTT assay, adriablastin resistant cell line MT-3/ADR; format: cell-based; details: concentration range tested up to 100 μM
Experimental: The cells were seeded in 96-well plates with 5×10^3 cells per well, in RPMI 1640 medium with 2 mM glutamine and 10% FBS. The cells were incubated for 24 hours. The test compounds were dissolved in DMSO and further diluted in medium just prior to use. 6 wells were used per test concentration. The cells were incubated with test compound for 24 hours. 20 μl of freshly prepared MTT solution was added to each well and incubated for 4 hours.

[2] = tested on: Hela mutant cervix carcinoma cells; experiment: Cytotoxic activity with or without nucleoside transport inhibitor dipyridamole, MTT assay; format: cell-based; details: dipyridamole 10 μM
Experimental: Dipyridamole was used as an inhibitor of the equilibrative nucleoside transporters hENT1 and hENT2. The cells were seeded in 96-well plates with 5×10^3 cells per well, in RPMI 1640 medium with 2 mM glutamine and 10% FBS. The cells were pre-incubated for 24 hours. Dipyridamole (10 μM) was added to the cells 30 minutes prior to the addition of the test compounds. The test compounds were dissolved in DMSO and further diluted in medium just prior to use. 6 wells were used per test concentration. The cells were incubated with test compound for 72 hours. 20 μl of freshly prepared MTT solution was added to each well and incubated for 4 hours.

Compound: Nc1ncn([C@@H]2O[C@H](CO)[C@@H](O)[C@H]2O)c(=O)n1 [Aza-C, 5-azacytidine]
- activity in the MT-3/ADR resistant cell line [1]: No activity was observed
- reduction of activity by addition of dipyridamole [2]: 3 fold
